{"source": "ChEMBL document CHEMBL5608208", "about": "“Design, synthesis of griseofamine A derivatives and development of potent antibacterial agents against MRSA” (Eur J Med Chem, 2024)", "key": {"Staphylococcus aureus [1]": {"system": "Staphylococcus aureus", "assay": "Antibacterial activity against methicillin resistant Staphylococcus aureus ATCC 43300 incubated for 18 hrs by serial two-fold dilution method", "assay_type": "functional"}, "Staphylococcus aureus [2]": {"system": "Staphylococcus aureus", "assay": "Potency index, ratio of griseofamine A MIC to test compound MIC for antibacterial activity against methicillin resistant Staphylococcus aureus ATCC 33592", "assay_type": "functional"}, "Staphylococcus aureus [3]": {"system": "Staphylococcus aureus", "assay": "Bactericidal activity against Staphylococcus aureus ATCC 29213 incubated for 18 to 24 hrs", "assay_type": "functional", "settings": "time 18-24 hrs"}, "Staphylococcus aureus [4]": {"system": "Staphylococcus aureus", "assay": "Bactericidal activity against methicillin resistant Staphylococcus aureus ATCC 43300 incubated for 18 to 24 hrs", "assay_type": "functional", "settings": "time 18-24 hrs"}, "[5]": {"assay": "Hemolytic activity in rabbit RBC assessed as hemolysis rate at 23.5 ug/ml incubated for 1 hr by microplate reader assay", "assay_type": "toxicity, cell-based, Oryctolagus cuniculus, Erythrocyte", "settings": "rabbit red blood cells (erythrocytes), at 23.5 µg/mL, read-out: Activity"}, "[6]": {"assay": "Cytotoxicity against mouse MLg cells assessed as survival rate at 23.5 ug/ml incubated for 24 hrs by MTS method", "assay_type": "toxicity, cell-based", "settings": "at 23.5 µg/mL, read-out: Survival"}, "[7]": {"assay": "AUC(0 to t) in ICR mouse at 5 mg/kg, po", "assay_type": "ADME, organism-based", "settings": "in vivo"}, "[8]": {"assay": "Half-life in ICR mouse at 5 mg/kg, po", "assay_type": "ADME, organism-based", "settings": "in vivo"}, "[9]": {"assay": "Tmax in ICR mouse at 5 mg/kg, po", "assay_type": "ADME, organism-based", "settings": "in vivo"}, "[10]": {"assay": "Half-life in ICR mouse at 1 mg/kg, iv", "assay_type": "ADME, organism-based", "settings": "in vivo"}, "[11]": {"assay": "Volume of distribution in ICR mouse at 1 mg/kg, iv", "assay_type": "ADME, organism-based", "settings": "in vivo"}, "Staphylococcus aureus [12]": {"system": "Staphylococcus aureus", "assay": "Antibacterial activity against methicillin resistant Staphylococcus aureus ATCC 43300 infected in ip dosed ICR mouse systemic infection model pretreated with bacteria for 30 mins followed by compound addition and measured for 7 days", "assay_type": "functional, organism-based", "settings": "dose 1.25-5 mg/kg, time 7.0 day"}, "Staphylococcus aureus [13]": {"system": "Staphylococcus aureus", "assay": "Antibacterial activity against methicillin resistant Staphylococcus aureus ATCC 43300 infected in ICR mouse systemic infection model at 2.5 mg/kg, ip pretreated with bacteria for 30 mins followed by compound addition and measured for 7 days", "assay_type": "functional", "settings": "time 7 day"}, "Staphylococcus aureus [14]": {"system": "Staphylococcus aureus", "assay": "Antibacterial activity against methicillin resistant Staphylococcus aureus ATCC 43300 infected in ICR mouse systemic infection model assessed as reduction in bacterial burden in liver at 2.5 mg/kg, ip pretreated with bacteria for 30 mins followed by compound addition and measured for 7 days", "assay_type": "functional, organism-based", "settings": "time 7.0 day"}, "Staphylococcus aureus [15]": {"system": "Staphylococcus aureus", "assay": "Antibacterial activity against methicillin resistant Staphylococcus aureus ATCC 43300 infected in ICR mouse systemic infection model assessed as reduction in bacterial burden in lung at 2.5 mg/kg, ip pretreated with bacteria for 30 mins followed by compound addition and measured for 7 days", "assay_type": "functional, organism-based", "settings": "time 7.0 day"}, "Staphylococcus aureus [16]": {"system": "Staphylococcus aureus", "assay": "Antibacterial activity against methicillin resistant Staphylococcus aureus ATCC 33592 assessed as leakage of cellular components at MIC incubated for 1 to 6 hrs by SEM analysis", "assay_type": "functional, organism-based", "settings": "time 1-6 hrs"}, "Staphylococcus aureus [17]": {"system": "Staphylococcus aureus", "assay": "Antibacterial activity against methicillin resistant Staphylococcus aureus ATCC 33592 assessed as increase in cell aggregation at MIC incubated for 1 to 6 hrs by SEM analysis", "assay_type": "functional, organism-based", "settings": "time 1-6 hrs"}}, "note": "Active and inactive are the calls of the source. No cut-off for these calls is given here.", "data": [{"smiles": "C/C(O)=C1\\C(=O)[C@@H]2Cc3c([nH]c4ccccc34)[C@@H](c3ccc(-c4cc(F)cc(F)c4)cc3)N2C1=O", "values": [{"measurement": "MIC", "setting": "Staphylococcus aureus [1]", "result": 0.063, "unit": "mg/L"}, {"measurement": "Ratio", "setting": "Staphylococcus aureus [2]", "result": 128}, {"measurement": "MBC", "setting": "Staphylococcus aureus [3]", "result": 1, "unit": "mg/L"}, {"measurement": "MBC", "setting": "Staphylococcus aureus [4]", "result": 1, "unit": "mg/L"}, {"measurement": "hemolysis at 1 h, 23.5 ug/ml", "setting": "[5]", "result": "< 5", "unit": "%"}, {"measurement": "viability at 24 h, 23.5 ug/ml", "setting": "[6]", "result": "> 80", "unit": "%"}, {"measurement": "AUC(0-t)", "setting": "[7]", "result": 2.45, "unit": "µg·h/mL"}, {"measurement": "half-life", "setting": "[8]", "result": 7.91, "unit": "h"}, {"measurement": "Tmax", "setting": "[9]", "result": 3.33, "unit": "h"}, {"measurement": "half-life", "setting": "[10]", "result": 7.59, "unit": "h"}, {"measurement": "Vd", "setting": "[11]", "result": 2.55, "unit": "L/kg"}, {"measurement": "Activity", "setting": "Staphylococcus aureus [12]", "result": "Dose-Dependent Effect"}, {"measurement": "Activity", "setting": "Staphylococcus aureus [13]", "result": 75, "unit": "%"}, {"measurement": "Activity", "setting": "Staphylococcus aureus [14]", "result": "Active"}, {"measurement": "Activity", "setting": "Staphylococcus aureus [15]", "result": "Active"}, {"measurement": "Activity", "setting": "Staphylococcus aureus [16]", "result": "Active"}, {"measurement": "Activity", "setting": "Staphylococcus aureus [17]", "result": "Active"}]}]}
